Test results reported in patent US6803191B2, “Candida albicans two-component hybrid kinase gene, CaNik1, and use thereof” (University of Iowa Research Foundation, priority 1997, dated 2004).
Marks after values point to notes of the source that are not given here.

Tested on: homozygous deletion mutant (HH80)
Assay: Growth of CaNik1 deletion mutant HH80 spot plated on agar plates with supplements (osmotic agents, inhibitors, carbon sources)
Type: cell-based, Candida albicans
Conditions: for Phenotypic effect in HH80: growth on agar plates: Lee's modified medium or YPD, 2 or 3 days at 25° C. and 37° C.; for Differential sensitivity: growth of mutant strain HH80 versus control strains CAI8 and CAI8U5: agar with modified Lee's medium plus ingredient, 25° C. and 37° C., three independent experiments
Procedure: Finally, growth of the CaNik1 deletion mutant HH80 was tested at 25° C. and 37° C. for differential sensitivity to osmotic strength and a variety of inhibitors.

| Molecule | Differential sensitivity: growth of mutant strain HH80 versus control strains CAI8 and CAI8U5 | other results |
| --- | --- | --- |
| [Cl-].[K+] [KCl] | no qualitative differences | Phenotypic effect in HH80: growth on agar plates (1 M KCl): ++ |
| O=S(=O)([O-])c1cc(Nc2nc(Nc3ccccc3)nc(N(CCO)CCO)n2)ccc1/C=C/c1ccc(Nc2nc(Nc3ccccc3)nc(N(CCO)CCO)n2)cc1S(=O)(=O)[O-].[Na+].[Na+] [Calcofluor] | no qualitative differences | Phenotypic effect in HH80: growth on agar plates (Calcofluor 20-40 μg/mL): +++^v |
| Cn1c(=O)c2c(ncn2C)n(C)c1=O [Caffeine] | no qualitative differences | – |
| OC[C@@H](O)[C@@H](O)[C@H](O)[C@@H](O)CO [Sorbitol] | no qualitative differences | Phenotypic effect in HH80: growth on agar plates (1.2 M Sorbitol): ++++ |
| OC[C@@H](O)[C@H](O)[C@@H](O)CO [Xylitol] | – | Phenotypic effect in HH80: growth on agar plates (1 M Xylitol): ++++ |
| polymyxin B | no qualitative differences | – |
| [Cl-].[Na+] [NaCl] | no qualitative differences | Phenotypic effect in HH80: growth on agar plates (1 M NaCl): ++; Phenotypic effect in HH80: growth on agar plates (1.5 M NaCl): + |
| O=S(=O)([O-])[O-].[Mg+2] [MgSO4] | no qualitative differences | Phenotypic effect in HH80: growth on agar plates (0.5 m MgSO4): ++ |
